Here are results for six compounds from patent US8329730B2, “Compounds” (Glaxo Group Limited, priority 2008, dated 2012).

Molecules are shown by their SMILES. Counter-ions that a name gives are not always drawn.

T1 sequence (Q99500 whole entry): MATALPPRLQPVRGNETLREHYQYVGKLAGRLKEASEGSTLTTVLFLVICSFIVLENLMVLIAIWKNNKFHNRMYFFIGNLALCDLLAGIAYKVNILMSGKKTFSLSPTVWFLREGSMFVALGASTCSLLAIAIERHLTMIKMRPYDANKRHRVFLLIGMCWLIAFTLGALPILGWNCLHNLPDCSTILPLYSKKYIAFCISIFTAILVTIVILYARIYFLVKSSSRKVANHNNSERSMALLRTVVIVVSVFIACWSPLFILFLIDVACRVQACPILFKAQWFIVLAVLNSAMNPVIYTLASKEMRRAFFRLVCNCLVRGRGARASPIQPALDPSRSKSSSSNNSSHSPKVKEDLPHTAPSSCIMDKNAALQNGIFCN

One experiment concerns the target T1, human S1P3 receptor (Homo sapiens, UniProt Q99500).
T1 construct: expressed in transfected cells; membranes
The experiment in a line: S1P3 GTPγS binding assay (and alternative method). The format is biochemical. As to conditions: in one of the above S1P3 GTPγS binding assays (first or alternative method, RBL membranes). How it is done: For membrane preparations all steps were performed at 4° C. Rat hepatoma cells stably expressing the human S1P1 receptor or Rat Basophilic Leukaemia cells (RBL) stably expressing human S1P3 receptor were grown to 80% confluency before being harvested into 10 ml Phospho-Buffered Saline (PBS) and centrifuged at 1200 rpm […]. After removal of the supernatant, the pellet was re-suspended and cells were homogenised within a glass Waring blender for 2 bursts of 15 secs in 200 mls of buffer (50 mM HEPES, 1 mM leupeptin, 25 μg/ml bacitracin, 1 mM EDTA, 1 mM PMSF, 2 μM pepstatin A). The blender was plunged into ice for 5 mins after the first burst and 10-40 mins after the final burst to allow foam to dissipate. The material was then spun at 500 g for 20 mins and the supernatant spun for 36 mins at 48,000 g. The pellet was resuspended in the same buffer as above but without PMSF and pepstatin A. The material was then forced through a 0.6 mm needle, made up to the required volume, (usually ×4 the volume of the original cell pellet), aliquoted and stored frozen at −80° C. […] The final assay cocktail (10.1 μl) was centrifuged at 1000 rpm for 5 minutes then read immediately on a Viewlux reader. […] The final assay cocktail (10.1 μl) was then sealed, spun on a centrifuge, then read immediately on a Viewlux instrument.
On the technique in general: Binding of GTPγS marks nucleotide exchange on a G protein.
One may read the EC50 as the concentration needed to bring the measured effect to its halfway point. A high value points to a less potent agent. In turn, `CC(C)Oc1ccc(-c2nc(-c3cccc4c(N5CCC(C(=O)O)CC5)nccc34)no2)cc1Cl` [Example 4, 1-[5-(5-{3-Chloro-4-[(1-methylethyl)oxy]phenyl}-1,2,4-oxadiazol-3-yl)-1-isoquinolinyl]-4-piperidinecarboxylic acid lithium salt] gave an EC50 of 3160 nM.

Another experiment deals with T2, human S1P1 receptor (Homo sapiens, UniProt P21453).
T2 construct: expressed in transfected cells; membranes
T2 sequence (P21453 whole entry): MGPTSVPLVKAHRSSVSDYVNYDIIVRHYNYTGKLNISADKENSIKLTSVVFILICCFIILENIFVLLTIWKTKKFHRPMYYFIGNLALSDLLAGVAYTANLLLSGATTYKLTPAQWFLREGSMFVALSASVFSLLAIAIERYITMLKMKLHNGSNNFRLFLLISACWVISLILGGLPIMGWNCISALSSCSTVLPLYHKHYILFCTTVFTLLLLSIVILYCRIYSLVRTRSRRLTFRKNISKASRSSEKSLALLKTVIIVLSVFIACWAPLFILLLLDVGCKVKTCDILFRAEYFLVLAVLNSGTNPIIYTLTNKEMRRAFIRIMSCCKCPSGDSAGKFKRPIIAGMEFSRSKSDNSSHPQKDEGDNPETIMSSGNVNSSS
The experiment in a line: S1P1 GTPγS binding assay (and alternative method). The format is biochemical. As to conditions: in one of the above S1P1 GTPγS binding assays (first or alternative method, RH7777 membranes). The method, then:
For membrane preparations all steps were performed at 4° C. Rat hepatoma cells stably expressing the human S1P1 receptor or Rat Basophilic Leukaemia cells (RBL) stably expressing human S1P3 receptor were grown to 80% confluency before being harvested into 10 ml Phospho-Buffered Saline (PBS) and centrifuged at 1200 rpm […]. After removal of the supernatant, the pellet was re-suspended and cells were homogenised within a glass Waring blender for 2 bursts of 15 secs in 200 mls of buffer (50 mM HEPES, 1 mM leupeptin, 25 μg/ml bacitracin, 1 mM EDTA, 1 mM PMSF, 2 μM pepstatin A). The blender was plunged into ice for 5 mins after the first burst and 10-40 mins after the final burst to allow foam to dissipate. The material was then spun at 500 g for 20 mins and the supernatant spun for 36 mins at 48,000 g. The pellet was resuspended in the same buffer as above but without PMSF and pepstatin A. The material was then forced through a 0.6 mm needle, made up to the required volume, (usually ×4 the volume of the original cell pellet), aliquoted and stored frozen at −80° C. Human S1P1 rat hepatoma membranes (1.5 μg/well) were adhered to a wheatgerm agglutinin (WGA)-coated scintillation proximity assay (SPA) beads (0.125 mg/well) in assay buffer (HEPES 20 mM, MgCl2 10 mM, NaCl 100 mM and pH adjusted to 7.4 using KOH 5M, GDP 10 μM FAC (final assay concentration) and saponin 90 μg/ml FAC was also added). After 30 minutes pre-coupling on ice the bead and membrane suspension was dispensed into a white Greiner polypropylene LV384-well plate (5 μl/well), containing 0.1 μl of the compound. 5 μl/well [^35S]-GTPγS (0.5 nM final radioligand conc) made up in assay buffer was then added to agonist plates. The final assay cocktail […] was then centrifuged at 1000 rpm for 5 minutes then read immediately on a Viewlux reader. All test compounds were dissolved in DMSO at a concentration of 10 mM and were prepared in 100% DMSO using a 1 in 4 dilution step to provide 11 point dose response curves. The dilutions were transferred to the assay plates ensuring that the DMSO concentration was constant across the plate for all assays. All data was normalized to the mean of 16 high and 16 low control wells on each plate. A four parameter curve fit was then applied. S1P1 expressing RH7777 membranes (1.5 μg/well) […] were homogenised by passing through a 23G needle. These were then adhered to WGA-coated SPA beads (0.125 mg/well) in assay buffer (HEPES 20 mM, MgCl2 10 mM, NaCl 100 mM and pH adjusted to 7.4 using KOH 5M). GDP 10 μM FAC and saponin 90 μg/ml FAC were also added After 30 minutes precoupling on ice, the bead and membrane suspension was dispensed into white Greiner polypropylene LV 384-well plates (5 μl/well), containing 0.1 μl of compound. 5 μl/well [^35S]-GTPγS (0.5 nM for S1P1 or 0.3 nM for S1P3 final radioligand concentration) made in assay buffer was then added to the plates. The final assay cocktail (10.1 μl) was then sealed, spun on a centrifuge, then read immediately on a Viewlux instrument.
On to `CC(C)Oc1ncc(-c2nc(-c3cccc4c(CCCC(=O)O)nccc34)no2)cc1Cl` [Example 30, 4-[5-(5-{5-Chloro-6-[(1-methylethyl)oxy]-3-pyridinyl}-1,2,4-oxadiazol-3-yl)-1-isoquinolinyl]butanoic acid], for which the EC50 is no more than 10 nM.
For `CC(C)Oc1ccc(-c2nc(-c3cccc4c(N5CCC(C(=O)O)CC5)nccc34)no2)cc1Cl` [Example 4, 1-[5-(5-{3-Chloro-4-[(1-methylethyl)oxy]phenyl}-1,2,4-oxadiazol-3-yl)-1-isoquinolinyl]-4-piperidinecarboxylic acid lithium salt], the EC50 is no more than 10 nM.
On the same count and under the same terms, as for `CC(C)Oc1ncc(-c2nc(-c3cccc4c(CCC(=O)O)nccc34)no2)cc1Cl` [Example 27, 3-[5-(5-{5-Chloro-6-[(1-methylethyl)oxy]-3-pyridinyl}-1,2,4-oxadiazol-3-yl)-1-isoquinolinyl]propanoic acid], the figure is no more than 10 nM; as for `CC(C)Oc1ccc(-c2nc(-c3cccc4c(CCC(=O)O)nccc34)no2)cc1C#N` [Example 26, 3-[5-(5-{3-Cyano-4-[(1-methylethyl)oxy]phenyl}-1,2,4-oxadiazol-3-yl)-1-isoquinolinyl]propanoic acid hydrochloride], no more than 10 nM; as for `CC(C)Oc1ccc(-c2nc(-c3cccc4c(CCC(=O)O)nccc34)no2)cc1Cl` [Example 1, 3-[5-(5-{3-Chloro-4-[(1-methylethyl)oxy]phenyl}-1,2,4-oxadiazol-3-yl)-1-isoquinolinyl]propanoic acid lithium salt], no more than 10 nM.
Same read-out and setting: the value for `O=C(O)CCc1nccc2c(-c3noc(-c4ccc(OCC(F)(F)F)c(Cl)c4)n3)cccc12` [Example 24, 3-[5-(5-{3-Chloro-4-[(2,2,2-trifluoroethyl)oxy]phenyl}-1,2,4-oxadiazol-3-yl)-1-isoquinolinyl]propanoic acid hydrochloride] was no more than 10 nM.
